Assay results taken from US12655116B2, “Substituted isophthalic acid diamides” (Bayer Aktiengesellschaft, priority 2020, dated 2026).

What was measured:
[1] = tested on: VIOTR; assay: Pre-emergence herbicidal action against VIOTR; format: in vivo, Viola tricolor
How it was run: (§1)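 Sandy loam pots, seeds covered with soil, then surface-treated with WP or EC formulations at 600–800 l/ha water plus 0.2% wetting agent. Greenhouse, 3 weeks. Percent damage vs untreated controls.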

[2] = tested on: MATIN; assay: Pre-emergence herbicidal action against MATIN; format: in vivo, Matricaria inodora
How it was run: as §1

[3] = tested on: ABUTH; assay: Post-emergence herbicidal action against ABUTH; format: in vivo, Abutilon theophrasti; conditions: visual assessment about 3 weeks after treatment vs untreated controls
How it was run: (§2)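 Herbicidal action is a visual percentage rating (0% = as untreated control, 100% = plants dead) made roughly 3 weeks after treatment. Plants were grown in sandy loam in the greenhouse and treated at the one-leaf stage, 2 to 3 weeks post-sowing. Treatment was a foliar spray of wettable-powder or emulsion-concentrate formulations at 600 to 800 l/ha water plus 0.2% wetting agent.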

[4] = tested on: ABUTH; assay: Pre-emergence herbicidal action against ABUTH; format: in vivo, Abutilon theophrasti
How it was run: as §1

[5] = tested on: ECHCG; assay: Pre-emergence herbicidal action against ECHCG; format: in vivo, Echinochloa crus-galli; conditions: 80 g/ha
How it was run: as §1

[6] = tested on: AMARE; assay: Pre-emergence herbicidal action against AMARE; format: in vivo, Amaranthus retroflexus
How it was run: as §1

[7] = tested on: POLCO; assay: Post-emergence herbicidal action against POLCO; format: in vivo, Polygonum convolvulus; conditions: dosage 20 g/ha
How it was run: as §2

[8] = tested on: SETVI; assay: Post-emergence herbicidal action against SETVI; format: in vivo, Setaria viridis
How it was run: as §2

[9] = tested on: PHBPU; assay: Post-emergence herbicidal action against PHBPU; format: in vivo, Pharbitis purpurea; conditions: dosage 20 g/ha
How it was run: as §2

[10] = tested on: SETVI; assay: Pre-emergence herbicidal action against SETVI; format: in vivo, Setaria viridis
How it was run: as §1

[11] = tested on: ALOMY; assay: Pre-emergence herbicidal action against ALOMY; format: in vivo, Alopecurus myosuroides; conditions: 80 g/ha, pre-emergence, scored visually after 3 weeks vs untreated controls (100% = plants have died, 0% = like control plants)
How it was run: as §1

[12] = tested on: AVEFA; assay: Post-emergence herbicidal action against AVEFA; format: in vivo, Avena fatua; conditions: visual assessment about 3 weeks after treatment, 100% = plants have died, 0% = like control plants
How it was run: as §2

[13] = tested on: AVEFA; assay: Pre-emergence herbicidal action against AVEFA; format: in vivo, Avena fatua; conditions: pre-emergence
How it was run: as §1

[14] = tested on: MATIN; assay: Post-emergence herbicidal action against MATIN; format: in vivo, Matricaria inodora; conditions: dosage 20 g/ha
How it was run: as §2

[15] = tested on: DIGSA; assay: Pre-emergence herbicidal action against DIGSA; format: in vivo, Digitaria sanguinalis
How it was run: as §1

[16] = tested on: ECHCG; assay: Post-emergence herbicidal action against ECHCG; format: in vivo, Echinochloa crus-galli
How it was run: as §2

[17] = tested on: VERPE; assay: Post-emergence herbicidal action against VERPE; format: in vivo, Veronica persica; conditions: Veronica persica, 504 h, 20 g/ha
How it was run: as §2

[18] = tested on: AMARE; assay: Post-emergence herbicidal action against AMARE; format: in vivo, Amaranthus retroflexus; conditions: 20 g/ha, visual assessment about 3 weeks after treatment, 100% = plants have died, 0% = like control plants
How it was run: as §2

[19] = tested on: PHBPU; assay: Pre-emergence herbicidal action against PHBPU; format: in vivo, Pharbitis purpurea; conditions: Ipomoea purpurea, 504 h, dosage 80 g/ha
How it was run: as §1

[20] = tested on: VERPE; assay: Pre-emergence herbicidal action against VERPE; format: in vivo, Veronica persica; conditions: dosage 80 g/ha
How it was run: as §1

[21] = tested on: DIGSA; assay: Post-emergence herbicidal action against DIGSA; format: in vivo, Digitaria sanguinalis; conditions: Digitaria sanguinalis, 504 h
How it was run: as §2

[22] = tested on: VIOTR; assay: Post-emergence herbicidal action against VIOTR; format: in vivo, Viola tricolor
How it was run: as §2

[23] = tested on: POLCO; assay: Pre-emergence herbicidal action against POLCO; format: in vivo, Polygonum convolvulus; conditions: Fallopia convolvulus, 504 h, dosage 80 g/ha
How it was run: as §1

[24] = tested on: ALOMY; assay: Post-emergence herbicidal action against ALOMY; format: in vivo, Alopecurus myosuroides; conditions: Alopecurus myosuroides, 504 h, dosage 20 g/ha, visual assessment about 3 weeks after treatment vs untreated controls
How it was run: as §2

[25] = tested on: STEME; assay: Pre-emergence herbicidal action against STEME; format: in vivo, Stellaria media
How it was run: as §1

[26] = tested on: STEME; assay: Post-emergence herbicidal action against STEME; format: in vivo, Stellaria media; conditions: 20 g/ha
How it was run: as §2

[27] = 80 g/ha, scored visually after 3 weeks vs untreated controls (100% = plants have died, 0% = like control plants)
[28] = Setaria viridis, 504 h, dosage 20 g/ha

## Cc1c(C(=O)Nc2nnnn2C)ccc(C(F)(F)F)c1C(=O)NCC1CC1 [Example 1-28]
[1]; dosage 20 g/ha
  Pre-emergence action against VIOTR in %: 100%
[1]; dosage 80 g/ha
  Pre-emergence action against VIOTR in %: 100%
[2]; dosage 20 g/ha
  Pre-emergence action against MATIN in %: 100%
[2]; dosage 80 g/ha
  Pre-emergence action against MATIN in %: 100%
[3]; dosage 5 g/ha
  Post-emergence action against ABUTH in %: 80%
[3]; dosage 20 g/ha
  Post-emergence action against ABUTH in %: 80%
[4]; [27]
  Pre-emergence action against ABUTH (herbicidal activity): 100%
[4]; dosage 20 g/ha, scored visually after 3 weeks vs untreated controls, 100% = plants have died, 0% = like control plants
  Pre-emergence action against ABUTH (herbicidal activity in percent): 90%
[5]
  Pre-emergence action against ECHCG in %: 100%
[6]; 20 g/ha, scored visually after 3 weeks vs untreated controls, 100% = plants have died, 0% = like control plants
  Pre-emergence action against AMARE in %: 100%
[6]; [27]
  Pre-emergence action against AMARE in %: 100%
[7]
  Post-emergence action against POLCO in %: 80%
[8]; dosage 5 g/ha
  Post-emergence action against SETVI in %: 80%
[8]; dosage 20 g/ha
  Post-emergence action against SETVI in %: 80%
[9]
  Post-emergence action against PHBPU in %: 90%
[10]; dosage 80 g/ha
  Pre-emergence action against SETVI in %: 100%
[11]
  Pre-emergence action against ALOMY (herbicidal activity): 90%
[12]; 5 g/ha
  Post-emergence action at 5 g/ha against AVEFA in %: 80%
[12]; 20 g/ha
  Post-emergence action at 20 g/ha against AVEFA in %: 80%
[13]; 80 g/ha
  Pre-emergence action against AVEFA in %: 100%
[14]
  Post-emergence action against MATIN in %: 80%
[15]; dosage 20 g/ha
  Pre-emergence action against DIGSA in %: 100%
[15]; dosage 80 g/ha
  Pre-emergence action against DIGSA in %: 100%
[16]; dosage 5 g/ha
  Post-emergence action against ECHCG in %: 80%
[16]; dosage 20 g/ha
  Post-emergence action against ECHCG in %: 90%

## CNC(=O)c1c(C(F)(F)F)ccc(C(=O)Nc2nnnn2C)c1Br [Example 1-207]
[1]; Viola tricolor, 504 h, dosage 20 g/ha
  pest or weed control at 20 g/ha: 100%
[1]; Viola tricolor, 504 h, dosage 80 g/ha
  pest or weed control at 80 g/ha: 100%
[2]; Tripleurospermum inodorum, 504 h, dosage 20 g/ha
  pest or weed control at 20 g/ha: 90%
[2]; Tripleurospermum inodorum, 504 h, dosage 80 g/ha
  pest or weed control at 80 g/ha: 100%
[3]; Abutilon theophrasti, 504 h, dosage 5 g/ha
  pest or weed control at 5 g/ha: 80%
[3]; Abutilon theophrasti, 504 h, dosage 20 g/ha
  pest or weed control at 20 g/ha: 90%
[4]; Abutilon theophrasti, 504 h, 80 g/ha, scored visually after 3 weeks vs untreated controls (100% = plants have died, 0% = like control plants)
  pest or weed control at 80 g/ha: 100%
[4]; Abutilon theophrasti, 504 h, dosage 20 g/ha, scored visually after 3 weeks vs untreated controls, 100% = plants have died, 0% = like control plants, read-out: Pre-emergence action against ABUTH (herbicidal activity in percent)
  pest or weed control at 20 g/ha: 100%
[5]; Echinochloa crus-galli, 504 h
  pest or weed control at 80 g/ha: 90%
[6]; Amaranthus retroflexus, 504 h, 20 g/ha, scored visually after 3 weeks vs untreated controls, 100% = plants have died, 0% = like control plants
  pest or weed control at 20 g/ha: 100%
[6]; Amaranthus retroflexus, 504 h, 80 g/ha, scored visually after 3 weeks vs untreated controls, 100% = plants have died, 0% = like control plants
  pest or weed control at 80 g/ha: 100%
[7]; Fallopia convolvulus, 504 h
  pest or weed control at 20 g/ha: 100%
[17]
  pest or weed control at 20 g/ha: 90%
[18]; Amaranthus retroflexus, 504 h
  pest or weed control at 20 g/ha: 100%
[19]
  pest or weed control at 80 g/ha: 80%
[8]; Setaria viridis, 504 h, dosage 5 g/ha
  pest or weed control at 5 g/ha: 100%
[8]; [28]
  pest or weed control at 20 g/ha: 100%
[9]; Ipomoea purpurea, 504 h
  pest or weed control at 20 g/ha: 80%
[20]; Veronica persica, 504 h
  pest or weed control at 80 g/ha: 100%
[10]; [28]
  pest or weed control at 20 g/ha: 100%
[10]; Setaria viridis, 504 h, dosage 80 g/ha
  pest or weed control at 80 g/ha: 100%
[11]; Alopecurus myosuroides, 504 h
  pest or weed control at 80 g/ha: 100%
[21]; 5 g/ha
  pest or weed control at 5 g/ha: 90%
[21]; 20 g/ha
  pest or weed control at 20 g/ha: 100%
[22]; Viola tricolor, 504 h, 5 g/ha
  pest or weed control at 5 g/ha: 100%
[22]; Viola tricolor, 504 h, 20 g/ha
  pest or weed control at 20 g/ha: 100%
[13]; Avena fatua, 504 h, 80 g/ha
  pest or weed control at 80 g/ha: 90%
[13]; Avena fatua, 504 h, 20 g/ha, scored visually after 3 weeks, 100% = plants have died, 0% = like control plants
  pest or weed control at 20 g/ha: 80%
[23]
  pest or weed control at 80 g/ha: 90%
[14]; Tripleurospermum inodorum, 504 h
  pest or weed control at 20 g/ha: 90%
[15]; Digitaria sanguinalis, 504 h, dosage 20 g/ha
  pest or weed control at 20 g/ha: 100%
[15]; Digitaria sanguinalis, 504 h, dosage 80 g/ha
  pest or weed control at 80 g/ha: 100%
[24]
  pest or weed control at 20 g/ha: 90%
[16]; Echinochloa crus-galli, 504 h, dosage 20 g/ha
  pest or weed control at 20 g/ha: 80%

## CCCn1nnnc1NC(=O)c1ccc(S(C)(=O)=O)c(C(=O)NC2CC2)c1Cl [Example 3-125]
[1]; dosage 80 g/ha
  Pre-emergence action against VIOTR in %: 100%
[2]; dosage 20 g/ha
  Pre-emergence action against MATIN in %: 100%
[2]; dosage 80 g/ha
  Pre-emergence action against MATIN in %: 100%
[3]; dosage 20 g/ha
  Post-emergence action against ABUTH in %: 80%
[4]; [27]
  Pre-emergence action against ABUTH (herbicidal activity): 100%
[6]; [27]
  Pre-emergence action against AMARE in %: 100%
[7]
  Post-emergence action against POLCO in %: 80%
[18]
  Post-emergence action at 20 g/ha against AMARE in %: 90%
[20]
  Pre-emergence action against VERPE in %: 80%
[25]; dosage 20 g/ha
  Pre-emergence action against STEME in %: 90%
[25]; dosage 80 g/ha
  Pre-emergence action against STEME in %: 100%
[22]; 20 g/ha
  Post-emergence action against VIOTR in %: 80%
[13]; 80 g/ha
  Pre-emergence action against AVEFA in %: 80%
[15]; dosage 80 g/ha
  Pre-emergence action against DIGSA in %: 80%
[26]
  Post-emergence action against STEME in %: 80%
